Laboratory results reported in paper PMC7616177, “From structure to clinic: Design of a muscarinic M1 receptor agonist with the potential to treat Alzheimer’s disease” (Cell, 2021).

What was measured:
Cynomolgus macaques = assay: Resting state qEEG in non-human primates; assay type: in vivo, Macaca fasicularis; details: subcutaneous, 0.3 and 3 mg/kg
From the text: 6 adult male Cynomolgus macaques (Macaca fasicularis; 8-10 kg; 12-15 years old) were used for EEG studies. These animals had been used previously on other studies and were not considered to be pharmacologically naive. Subjects were housed in a temperature-controlled recording room and are maintained on a 12-hour light/dark cycle. The animals had access to water ad libitum and were fed a full daily regimen of food each day (Purina Animal Nutrition, Gray Summit, MO) enriched with fresh fruit and/or vegetables. All studies are conducted in compliance with USDA, NIH and SRI International IACUC guidelines. SRI International is an AAALAC accredited institution. […] Following the acclimation period, animals were dosed subcutaneously with vehicle or compound and EEG activity was recorded for 120 min. […]
Data was analyzed using existing, customized MATLAB scripts with the EEGLAB toolbox. […] Mean absolute power, log transformed absolute power, and relative power was calculated based on each frequency band’s contribution to the total absolute power (i.e., % power). The mean normalized power was subsequently calculated by dividing each frequency band’s absolute power in the drug condition with the corresponding power in the control condition for each individual animal (i.e., use each animal as its own control) and then average across subjects. […]

[1] = 4-day repeat dose tolerability assessment in dogs; details: beagle, dog
healthy elderly subjects = assay: Clinical fMRI Arena task in healthy elderly subjects; assay type: in vivo, human; parameters: Activation across a-priori regions during encoding and retrieval / Left hippocampus activation effect: dose or concentration left out as unconfirmed
From the text: All functional MRI images were acquired on a 3T scanner using gradient echo-echo planar imaging (GRE-EPI: TR: […]; TE: 30 ms; 90-degree flip angle; slices: 53; voxel size 3.75x 3.75 mm) and an 8-channel head coil. All data processing was done using Statistical Parameteric Mapping (SPM) version 5 software. All functional images were co-registered to subjects own T1 weighted structural image for anatomical localization, realigned using a least-squares approach and a 6 parameter (rigid body) spatial translation, normalized to Montreal neurological institute (MNI) using a high dimensional, non-linear transformation and smoothed using 3D 7 mm Gaussian filter. A high pass filter was applied to remove low temporal frequency drift. Bilateral hippocampal and caudate masks based on previous publications using the Arena task were used for analysis ([Antonova et al., 2009], [2011]). The masks consisted of spheres of radius 6mm centered on co-ordinates from these papers.
A block design was used to assess functional activation during encoding, retrieval, and rest (control) conditions of the Arena task. Beta-estimates of functional response during each condition were created by modeling signal changes convolved with a double gamma hemodynamic response function with peak responses at 4 and 8 s following stimulus onset for each individual. In the first level analysis, difference in beta estimates for encoding versus rest, and retrieval versus rest were derived. […] Functional responses in the a-priori ROIs were extracted using hippocampal, ventral striatum, and caudate masks derived from subject own T1 weighted image. To test for drug effects in these pre-specified regions an ANOVA including fixed-effect terms representing treatment group, study site as a between subject factor, and baseline MMSE score as covariate was used.

## CCOC(=O)N1CCC[C@H](N2CCC(C(=O)NC3(C)CCC3)CC2)CC1 [HTL9936, ethyl (S)-4-(4-((1-methylcyclobutyl)carbamoyl)piperidin-1-yl)azepane-1-carboxylate]
Cynomolgus macaques
  qEEG power: increased delta power
[1]; plasma
  Cmax at 4 day: > 32000 ng/mL
[1]; plasma (unbound)
  concentration at 4 day: 60 µM
Healthy elderly subjects; 10.1 dose (so in the source)
  Activation across a-priori regions during encoding and retrieval: increased bilateral activation
Healthy elderly subjects; 40.3 dose (so in the source)
  Left hippocampus activation effect: smaller effect
Healthy elderly subjects; healthy elderly, i.v. infusion
  Arena task performance: did not significantly improve task performance
  fMRI activation during encoding of spatial cues: significant drug by activation interaction effect in the left hippocampus
Healthy elderly subjects; human, high dose 40.3 mg i.v.
  Predicted steady-state plasma concentration: 100 ng/mL
Healthy elderly subjects; human, low and high doses
  Predicted exposure as multiple of human M1-receptor in vitro potency: 0.2- to 3.4 fold
Healthy elderly subjects; human, low dose 10.1 mg i.v.
  Predicted steady-state plasma concentration: 25 ng/mL
